The source made the active and inactive calls.
How the values were obtained:
[1] = biological target: Arf-GAP with SH3 domain, ANK repeat and PH domain-containing protein 1 (Homo sapiens, UniProt Q9ULH1); type: functional;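 also: biochemical fluorescence polarization dose–response screen measuring inhibition of ASAP1; ASAP1 GAP domain stimulating GTP hydrolysis by truncated human ARF1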
[2] = biological target: T1, Estrogen receptor beta (Homo sapiens, UniProt Q92731); experiment: blockers of SRC-3 recruitment to ERβ – biochemical, ELISA, streptavidin-HRP readout, orthogonal assay, confirmation (AID 1060)
[3] = biological target: Estrogen receptor (Homo sapiens, UniProt P03372);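 also: potency for inhibiting coactivator peptide recruitment to the receptor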
[4] = biological target: T2, Tyrosine-protein phosphatase non-receptor type 22 (Homo sapiens, UniProt Q9Y2R2); experiment: lymphoid phosphatase LYP inhibitors – biochemical, selectivity assay for STEP inhibitor project, dose response (AID 624241); type: functional
T2 sequence (Q9Y2R2 whole entry): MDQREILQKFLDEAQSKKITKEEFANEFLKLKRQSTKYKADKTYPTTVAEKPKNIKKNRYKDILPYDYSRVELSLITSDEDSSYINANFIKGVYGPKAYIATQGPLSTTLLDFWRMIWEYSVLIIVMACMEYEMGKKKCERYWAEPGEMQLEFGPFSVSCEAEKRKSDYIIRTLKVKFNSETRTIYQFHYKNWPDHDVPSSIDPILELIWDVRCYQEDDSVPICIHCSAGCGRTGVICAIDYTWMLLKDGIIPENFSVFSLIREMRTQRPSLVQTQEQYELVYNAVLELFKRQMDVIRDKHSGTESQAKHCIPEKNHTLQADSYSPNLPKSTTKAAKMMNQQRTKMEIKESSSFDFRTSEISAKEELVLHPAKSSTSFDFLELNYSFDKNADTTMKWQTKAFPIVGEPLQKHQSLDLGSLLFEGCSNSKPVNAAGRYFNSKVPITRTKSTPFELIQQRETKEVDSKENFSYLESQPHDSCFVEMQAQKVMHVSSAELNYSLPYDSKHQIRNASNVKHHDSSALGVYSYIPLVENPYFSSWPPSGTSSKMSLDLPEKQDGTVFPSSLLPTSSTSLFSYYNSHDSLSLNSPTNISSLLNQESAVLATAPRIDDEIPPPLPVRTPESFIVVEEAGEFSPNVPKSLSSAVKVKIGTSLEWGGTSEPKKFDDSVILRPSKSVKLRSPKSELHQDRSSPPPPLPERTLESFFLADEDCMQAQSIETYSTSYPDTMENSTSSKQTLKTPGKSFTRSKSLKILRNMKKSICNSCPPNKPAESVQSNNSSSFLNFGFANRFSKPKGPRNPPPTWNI

[5] = biological target: Dual specificity protein phosphatase 3 (Homo sapiens, UniProt P51452); experiment: VHR phosphatase inhibition, dose response, selectivity assay for STEP inhibitor project, biochemical (AID 602374); type: functional; conditions: read-out: IC50_Mean
[6] = biological target: T1, Estrogen receptor beta
[7] = biological target: Tyrosine-protein phosphatase non-receptor type 11 (Homo sapiens, UniProt Q06124); experiment: PTPN11 enzyme inhibitors – biochemical, selectivity assay for STEP inhibitor project, dose response (AID 602367); type: functional; conditions: read-out: IC50_Mean
[8] = biological target: Tyrosine-protein phosphatase non-receptor type 5 (Homo sapiens, UniProt P54829); experiment: PTPN5 enzyme inhibition – biochemical, fluorescence intensity, uHTS hits, confirmation (AID 602372); type: functional; conditions: read-out: IC50_Mean
[9] = biological target: T3, Bcl-2-like protein 10 (Homo sapiens, UniProt Q9HD36); experiment: Bcl-B/TR3 peptide binding disruption – biochemical, fluorescence polarization, FITC-TR3 peptide, selectivity assay for Bfl-1 inhibitor project, primary screen (AID 748);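 also: fluorescence polarization from a fluorescein-labelled TR3 peptide binding purified Bcl-B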
T3 sequence (Q9HD36 whole entry): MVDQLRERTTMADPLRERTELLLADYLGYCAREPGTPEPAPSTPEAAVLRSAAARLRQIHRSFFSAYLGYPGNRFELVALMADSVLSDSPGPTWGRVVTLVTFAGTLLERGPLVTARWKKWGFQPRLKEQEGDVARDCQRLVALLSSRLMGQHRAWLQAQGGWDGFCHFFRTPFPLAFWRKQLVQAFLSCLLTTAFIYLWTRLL

[10] = biological target: T4, Carboxy-terminal domain RNA polymerase II polypeptide A small phosphatase 1 (Homo sapiens, UniProt Q9GZU7); experiment: CTDSP1 inhibitors, concentration-response, biochemical, absorbance readout, ultra-high-throughput screen actives (AID 540297); type: functional
T4 sequence (Q9GZU7 whole entry): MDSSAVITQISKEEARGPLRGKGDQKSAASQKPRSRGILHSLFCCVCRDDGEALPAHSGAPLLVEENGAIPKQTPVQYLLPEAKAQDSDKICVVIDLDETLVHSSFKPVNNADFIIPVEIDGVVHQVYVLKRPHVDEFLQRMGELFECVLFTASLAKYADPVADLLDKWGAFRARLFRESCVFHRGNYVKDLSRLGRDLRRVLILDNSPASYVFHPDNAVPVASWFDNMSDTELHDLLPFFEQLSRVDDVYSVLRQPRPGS

T1 sequence (Q92731 whole entry): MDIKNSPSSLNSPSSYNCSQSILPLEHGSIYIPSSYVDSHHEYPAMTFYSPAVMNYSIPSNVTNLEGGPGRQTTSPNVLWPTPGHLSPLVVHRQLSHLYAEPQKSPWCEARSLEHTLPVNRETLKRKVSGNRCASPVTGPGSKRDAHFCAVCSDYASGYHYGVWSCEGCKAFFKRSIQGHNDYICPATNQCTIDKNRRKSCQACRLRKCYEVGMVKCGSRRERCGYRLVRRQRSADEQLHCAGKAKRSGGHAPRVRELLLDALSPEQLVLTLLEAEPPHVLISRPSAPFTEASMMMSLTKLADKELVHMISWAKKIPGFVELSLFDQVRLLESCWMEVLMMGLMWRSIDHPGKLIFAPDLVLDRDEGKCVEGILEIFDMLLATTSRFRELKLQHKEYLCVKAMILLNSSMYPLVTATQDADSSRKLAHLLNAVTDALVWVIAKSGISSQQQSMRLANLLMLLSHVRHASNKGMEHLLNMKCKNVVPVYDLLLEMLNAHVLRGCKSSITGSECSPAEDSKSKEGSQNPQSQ
Chain of Estrogen receptor (P03372 whole entry): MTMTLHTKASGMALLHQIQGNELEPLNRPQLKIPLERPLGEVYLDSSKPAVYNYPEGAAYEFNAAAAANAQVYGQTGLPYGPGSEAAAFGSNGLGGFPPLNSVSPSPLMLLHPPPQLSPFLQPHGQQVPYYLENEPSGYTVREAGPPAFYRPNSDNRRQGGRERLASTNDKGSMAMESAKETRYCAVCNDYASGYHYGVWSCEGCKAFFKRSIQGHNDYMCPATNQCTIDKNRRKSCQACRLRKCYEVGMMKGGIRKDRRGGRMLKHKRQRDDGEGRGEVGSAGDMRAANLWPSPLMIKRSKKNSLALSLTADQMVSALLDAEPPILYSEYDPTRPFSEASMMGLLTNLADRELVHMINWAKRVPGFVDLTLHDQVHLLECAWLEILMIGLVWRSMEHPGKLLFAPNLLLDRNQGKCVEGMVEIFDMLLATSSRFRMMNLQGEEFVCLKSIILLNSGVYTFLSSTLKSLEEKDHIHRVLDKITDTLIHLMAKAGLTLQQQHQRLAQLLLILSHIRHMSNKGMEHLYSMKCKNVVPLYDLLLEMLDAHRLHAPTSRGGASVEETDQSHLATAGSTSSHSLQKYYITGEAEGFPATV
Chain of Tyrosine-protein phosphatase non-receptor type 5 (P54829 whole entry): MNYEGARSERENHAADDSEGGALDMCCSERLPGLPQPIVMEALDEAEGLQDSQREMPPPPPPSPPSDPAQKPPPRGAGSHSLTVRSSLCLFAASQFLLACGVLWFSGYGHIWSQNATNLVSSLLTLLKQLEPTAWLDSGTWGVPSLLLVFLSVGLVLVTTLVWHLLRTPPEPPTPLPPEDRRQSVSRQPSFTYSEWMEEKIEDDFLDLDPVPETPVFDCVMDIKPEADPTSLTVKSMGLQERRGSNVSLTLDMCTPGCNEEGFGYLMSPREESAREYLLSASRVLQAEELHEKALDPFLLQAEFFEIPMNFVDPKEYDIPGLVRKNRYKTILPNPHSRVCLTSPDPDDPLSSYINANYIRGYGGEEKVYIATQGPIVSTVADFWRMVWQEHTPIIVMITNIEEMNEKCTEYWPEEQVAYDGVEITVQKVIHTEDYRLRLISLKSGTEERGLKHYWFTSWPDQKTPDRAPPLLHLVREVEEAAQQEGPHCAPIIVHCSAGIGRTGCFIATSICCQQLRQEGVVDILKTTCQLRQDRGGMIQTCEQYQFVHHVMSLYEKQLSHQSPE
Chain of Arf-GAP with SH3 domain, ANK repeat and PH domain-containing protein 1 (Q9ULH1 whole entry, the tested form may be a part): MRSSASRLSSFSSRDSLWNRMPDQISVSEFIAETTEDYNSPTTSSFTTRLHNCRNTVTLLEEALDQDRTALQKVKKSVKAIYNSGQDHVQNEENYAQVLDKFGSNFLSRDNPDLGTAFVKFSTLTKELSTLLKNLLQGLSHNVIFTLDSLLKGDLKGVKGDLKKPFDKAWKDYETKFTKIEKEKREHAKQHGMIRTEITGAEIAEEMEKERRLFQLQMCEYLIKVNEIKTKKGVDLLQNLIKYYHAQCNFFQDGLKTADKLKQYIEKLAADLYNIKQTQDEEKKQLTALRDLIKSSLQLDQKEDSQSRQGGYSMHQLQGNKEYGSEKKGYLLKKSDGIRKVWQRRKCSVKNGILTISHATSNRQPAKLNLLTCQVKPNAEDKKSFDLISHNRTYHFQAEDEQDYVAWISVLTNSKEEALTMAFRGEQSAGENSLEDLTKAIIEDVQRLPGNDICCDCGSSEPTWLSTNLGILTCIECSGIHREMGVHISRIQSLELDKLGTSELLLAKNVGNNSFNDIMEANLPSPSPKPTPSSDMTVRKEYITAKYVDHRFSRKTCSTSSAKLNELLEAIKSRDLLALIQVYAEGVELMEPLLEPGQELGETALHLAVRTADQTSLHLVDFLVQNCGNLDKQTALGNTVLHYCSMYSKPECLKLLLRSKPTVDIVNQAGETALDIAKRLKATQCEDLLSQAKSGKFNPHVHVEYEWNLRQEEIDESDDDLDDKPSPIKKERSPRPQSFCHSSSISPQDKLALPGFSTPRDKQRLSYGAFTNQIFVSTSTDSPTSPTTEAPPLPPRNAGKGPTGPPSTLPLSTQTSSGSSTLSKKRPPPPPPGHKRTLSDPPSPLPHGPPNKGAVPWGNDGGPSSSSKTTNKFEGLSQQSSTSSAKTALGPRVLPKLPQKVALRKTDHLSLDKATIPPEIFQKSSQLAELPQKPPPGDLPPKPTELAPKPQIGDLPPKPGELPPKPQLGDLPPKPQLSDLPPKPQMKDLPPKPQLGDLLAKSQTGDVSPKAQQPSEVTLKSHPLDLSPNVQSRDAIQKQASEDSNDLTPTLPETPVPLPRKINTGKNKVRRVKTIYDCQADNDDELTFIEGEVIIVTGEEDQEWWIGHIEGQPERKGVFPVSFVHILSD
Chain of Dual specificity protein phosphatase 3 (P51452 whole entry): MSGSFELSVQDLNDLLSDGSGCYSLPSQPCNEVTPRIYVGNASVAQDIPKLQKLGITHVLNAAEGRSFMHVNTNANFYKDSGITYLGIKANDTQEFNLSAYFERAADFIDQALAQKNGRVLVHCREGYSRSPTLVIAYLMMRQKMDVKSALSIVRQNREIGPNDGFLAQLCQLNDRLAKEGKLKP

IC50 [1]	IC50 [2]	IC50 [3]	IC50 [4]	IC50 [5]	IC50 [6]	IC50 [7]	IC50 [8]	IC50 [9]	IC50 [10]	SMILES
3.41 µM (active)										CC1=CC2=NC(=O)/C(=C\c3ccc(-c4ccc(Cl)cc4)o3)C(=N)N2O1
	< 0.023 µM (not active)	18.1 µM (active)	21.8 µM (inactive)	1.03 µM (active)	5.22 µM (active)	0.776 µM (active)	23.4 µM (inactive)	16 µM (active)	3.66 µM (active)	Cc1ccc(S(=O)(=O)Cc2ccc(C(=O)O)o2)cc1

— ChEMBL document CHEMBL1201862, “PubChem BioAssay data set” (2004)
